The source of these data is patent US5936065A, “CS-1 peptidomimetics, compositions and methods of using the same” (Cytel Corporation, priority 1995, dated 1999).

One data set deals with T1, VLA-4 receptor (Homo sapiens, UniProt P05556+P13612).
T1 construct: inflammatory cells that contain the VLA-4 receptor [Jurkat cells; host or cells: Jurkat cells (human T lymphoblastic line)
Description: In vitro binding assay: inhibition of binding of 51Cr-labeled Jurkat cells to solid phase-bound CS-1 compound (SEQ ID NO:1). It is filed as cell-based. The conditions noted are these: for Relative Potency: binding inhibition potency (IC50) normalized to standard compound of SEQ ID NO:3 = 1, multiple assays averaged, about one-tenth or less assigned zero. The procedure: Binding inhibition is measured here as a concentration of compound that inhibits one-half the binding between a standard number of Jurkat cells and a standard amount of CS-1 compound bound to the surface of a microtiter plate well. Those concentrations are conveniently expressed as IC50 values, smaller numbers indicating a lower concentration required to inhibit 50 percent binding and therefore greater potency. Further specifics of this assay are provided hereinafter.
Jurkat cells (ATCC TIB 152), a human T lymphoblastic line, labeled with ^51 chromium were used to assay in vitro binding inhibition provided by various compounds discussed herein.
The plates were prepared as follows: The 25-mer CS-1 compound (SEQ ID NO:1) dissolved at 0.5-1 μg/ml in a buffer of 0.1M NaHCO3 at pH 9.5 that also contained 10 μg/ml of bovine serum albumin (BSA) or a conjugate of the CS-1 compound linked to ovalbumin (CS-1-OVA) dissolved at 1-2.5 μg/ml in the same buffer was used as the substrate. Each well of the microtiter plates was coated with 50 μl of substrate or buffer alone for controls. The wells were permitted to dry out completely and were then rinsed twice with PBS at pH 7.4. Non-specific binding sites of each well were then blocked using 200 μl per well of RPMI/1 percent BSA for two hours at room temperature.
Jurkat cells (3-5×10^6 cells) were placed into a 15 ml Falcon™ round-bottom tube with a cap. The tube was centrifuged, and the extra medium was then removed.
Two hundred microliters of a ^51 Cr labeling solution were added to the centrifuged cells and maintained in contact with the cells for 90-120 minutes in a warm room. […] Longer contact times provide a greater amount of labeling but lower cell viability.
The labeled cells are washed with (i) complete medium, (ii) 1 mM EDTA/PBS and then (iii) RPM1/1 percent BSA free of serum components. The cells are centrifuged after each washing. The cells are finally resuspended in serum-free RPMI/1 percent BSA at a concentration of 1×10^6 viable cells/ml, which provides a concentration that is diluted by one-half in the assay.
Inhibitor compounds are prepared as stock solutions at 20 mg/ml in DMSO in 1.5 ml cryogenic screwcap vials, and were stored at -70° C. Using Flow™ round-bottom or V-bottom microtiter plates, the inhibitor compounds were prepared at twice the assay concentration in RPMI/1 percent BSA at 60 μl/well.
Four initial dilutions were typically used.
The ^51 Cr-labeled cells ([…] at 60 μl/well) were then admixed with the diluted compound solutions. The admixtures were maintained at room temperature (about 22° C.) for 30 minutes.
One hundred microliters of each inhibitor compound/cell admixture were transferred to the substrate-coated wells. This was done in triplicate for each dilution. The resulting plates were incubated for 30 minutes at 37° C. and then washed gently three times with RPMI/1 percent BSA at 200 μl/well. Binding was observed microscopically, particularly after the second wash.
The bound cells were then lysed by the addition of a 0.5 percent solution of sodium dodecylsulfate in water at 100 μl/well. The resulting solutions were then processed for counting and calculation of IC50 values following usual procedures.
The data of Table 1 are normalized to the binding of SEQ ID NO:3. […] Multiple assays for the same compound were averaged.

Data set [1] can be described thus: Retention of potency in PBS containing 10 percent mouse or human serum. The conditions noted are these: PBS at 7.2-7.4 containing 10 percent mouse or human serum; 24 hours. It is filed as in vitro ADME.
In another data set the test system is BALB/c mice. Description: Adoptive transfer delayed type hypersensitivity (oxazolone) in mice. It is filed as in vivo, mouse. The conditions noted are these: for reduction of inflammation (swelling diameter at challenge site), initial study: 6 mg/kg/day subcutaneously by implanted pump for 24 hours, ear swelling 24 hours after challenge, FIG. 5. The procedure:
An adoptive transfer delayed-type hypersensitivity murine model has been developed using splenic T cells primed to oxazolone. This model is described in Elices et al., Clin. Exp. Rheum., 11(Suppl. 8):577-580 (1993), whose procedures were followed here.
Thus, BALB/c mice were shaved on the belly and painted (50 μl on the belly and 5 μl on each paw) with three percent oxazolone in acetone/olive oil (4:1) at days zero and 1. At day 5, the mice were sacrificed, their spleens removed, and splenic T cells were obtained via nylon wool columns.
Normal saline or saline containing 25×10^6 /animal of the oxazolone-immune T cells were separately injected into naive mice. The mice were then challenged by painting 10 μl of 2 percent oxazolone onto one ear each. All procedures were carried out under sterile conditions and in endotoxin-free buffers.
Prior to challenge or saline injection, the mice were implanted with pumps that subcutaneously administered normal saline, normal saline containing the compound, Compound ID No. 896.52, N-phenylacetyl-Leu-Asp-Phe-D-Pro-NH2, or normal saline containing a compound with a scrambled sequence continually at 6 mg/kg/day for a 24-hour time period. The swelling diameter at the site of challenge or saline injection was measured with a microcaliper 24 hours thereafter.
An expanded study was carried out as described above except that a scrambled compound control was not used as a control for further inhibitor compounds of Table 1 with larger groups of mice. Statistical analyses were carried out versus injection of vehicle alone.

Another data set has as its system SJL/J mice. Put plainly: Experimental autoimmune encephalomyelitis in mice. It is filed as in vivo. The conditions noted are these: 1 mg/mouse intraperitoneally at days 8 and 9; FIG. 6. The method, then:
EAE was induced in female SJL/J mice (8 to 14 weeks old) by immunization on day zero with 50 μg of a compound corresponding to positions 139-151 of PLP emulsified in a 1:1 mixture of PBS and complete Freund's adjuvant (CFA). Each mouse was injected with 0.2 ml of the adjuvant emulsion subcutaneously (s.c.) at two sites in the hind flank. All mice received 10^7 killed Bordetella pertussis units in 100 μl were injected intravenously 24 to 72 hours later.
Mice were observed daily, beginning at day 8 for clinical signs of EAE, and disease was scored on a scale of 0-5 as: 0=no disease; 1=floppy tail; 2=moderate hind limb weakness; 3=paraparesis; 4=paraplegis with moderate forelimb weakness; 5=qualdriplegis or premoribund state.
The inhibitor compound, Compound ID No. 896.52, N-phenylacetyl-Leu-Asp-Phe-D-Pro-NH2 was administered intraperitoneally at 1 mg/mouse in 0.2 ml of incomplete Freund's adjuvant at days 8 and 9. A compound having a scrambled sequence [N-phenylacetyl-Asp-Leu-Phe-D-Pro-NH2 ] was similarly administered to serve as a control.
Summed or averaged scores for clinical signs were plotted vs. time. The area under the resulting curves was calculated between day 8 and day 35 to calculate percentage inhibition of EAE by an inhibitor compound. The percent inhibition was calculated as follows:
[…]

Molecules are shown by their SMILES. Square brackets hold non-standard residues; d marks the D form. Peptide text beside a SMILES is read from it. * marks the point of attachment. PhAc = O=C(Cc1ccccc1)*

T1 sequence (P13612 34-1032): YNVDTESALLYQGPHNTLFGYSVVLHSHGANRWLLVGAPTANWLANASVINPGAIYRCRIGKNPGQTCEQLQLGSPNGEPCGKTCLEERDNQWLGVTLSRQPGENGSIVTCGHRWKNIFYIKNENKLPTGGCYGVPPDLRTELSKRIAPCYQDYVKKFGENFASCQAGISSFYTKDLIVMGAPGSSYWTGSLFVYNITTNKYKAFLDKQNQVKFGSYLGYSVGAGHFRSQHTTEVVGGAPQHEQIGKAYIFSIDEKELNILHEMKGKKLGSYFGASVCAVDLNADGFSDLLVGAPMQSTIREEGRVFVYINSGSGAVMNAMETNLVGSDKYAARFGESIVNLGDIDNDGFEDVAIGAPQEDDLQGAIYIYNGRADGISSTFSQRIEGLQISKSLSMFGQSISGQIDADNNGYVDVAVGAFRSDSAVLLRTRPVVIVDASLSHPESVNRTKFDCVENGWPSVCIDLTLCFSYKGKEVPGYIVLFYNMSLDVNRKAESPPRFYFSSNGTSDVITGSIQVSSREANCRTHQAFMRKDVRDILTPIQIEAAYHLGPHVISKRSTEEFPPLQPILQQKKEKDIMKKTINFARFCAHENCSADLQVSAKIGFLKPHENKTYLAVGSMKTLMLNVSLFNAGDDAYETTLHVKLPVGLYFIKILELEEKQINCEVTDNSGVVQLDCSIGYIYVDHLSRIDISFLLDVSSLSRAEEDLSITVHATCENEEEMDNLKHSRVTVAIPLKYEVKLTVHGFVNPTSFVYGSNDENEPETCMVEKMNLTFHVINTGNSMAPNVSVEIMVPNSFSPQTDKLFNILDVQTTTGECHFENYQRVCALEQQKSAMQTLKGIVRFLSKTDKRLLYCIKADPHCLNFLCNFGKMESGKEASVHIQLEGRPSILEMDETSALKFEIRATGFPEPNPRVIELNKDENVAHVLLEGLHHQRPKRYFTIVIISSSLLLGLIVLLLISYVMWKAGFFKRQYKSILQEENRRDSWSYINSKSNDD
T1 sequence (P05556 21-798): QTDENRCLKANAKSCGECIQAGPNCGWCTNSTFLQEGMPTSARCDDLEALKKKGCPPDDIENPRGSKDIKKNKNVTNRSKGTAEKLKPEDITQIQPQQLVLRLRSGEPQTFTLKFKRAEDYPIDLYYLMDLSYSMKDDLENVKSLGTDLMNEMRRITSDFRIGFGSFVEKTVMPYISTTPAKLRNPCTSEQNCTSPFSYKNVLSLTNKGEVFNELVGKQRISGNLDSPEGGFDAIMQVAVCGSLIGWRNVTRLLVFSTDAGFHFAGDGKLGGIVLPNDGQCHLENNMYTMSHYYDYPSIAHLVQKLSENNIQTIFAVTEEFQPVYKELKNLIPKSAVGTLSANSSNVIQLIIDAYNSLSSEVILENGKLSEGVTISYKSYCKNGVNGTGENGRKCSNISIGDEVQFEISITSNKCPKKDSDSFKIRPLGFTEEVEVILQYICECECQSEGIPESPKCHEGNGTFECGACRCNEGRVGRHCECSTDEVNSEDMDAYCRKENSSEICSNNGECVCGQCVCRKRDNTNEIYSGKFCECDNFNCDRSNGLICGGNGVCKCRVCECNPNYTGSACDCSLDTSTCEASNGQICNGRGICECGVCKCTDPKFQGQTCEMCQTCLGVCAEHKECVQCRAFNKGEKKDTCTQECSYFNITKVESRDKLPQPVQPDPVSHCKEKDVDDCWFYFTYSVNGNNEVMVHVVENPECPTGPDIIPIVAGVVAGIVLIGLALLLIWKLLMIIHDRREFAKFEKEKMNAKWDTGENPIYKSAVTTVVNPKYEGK

Regarding `CC(C)C[C@H](NC(=O)Cc1ccccc1)C(=O)N[C@@H](CC(=O)O)C(=O)N[C@@H](Cc1ccccc1)C(=O)N1CCC[C@@H]1C(N)=O` [896.52, N-phenylacetyl-Leu-Asp-Phe-D-Pro-NH2] (PhAc-LDF[dP]-NH2), the “IC50 value, times less than the IC50 value for the standard 10-mer” value on VLA-4 receptor (as shown in Table 1) is given as “about 312 times”. Moreover, at VLA-4 receptor, the “Relative Potency” value was found to be 313. In addition, the “loss of potency in serum-containing buffer” value in data set [1] is on record as “no loss of potency”. The “reduction of inflammation (swelling diameter at challenge site), initial study” value with BALB/c mice is listed as “reduced this type of CS-1/VLA-4-mediated immunoinflammation”. For the same compound, the “Percent Inhibition of post-challenge swelling, expanded study” value with BALB/c mice (versus vehicle alone, implanted pump, 24 hours) turned out to be 36%. Also, the “clinical signs of EAE” value with SJL/J mice is reported as “marked improvement in clinical signs”.

For `CC(C)C[C@H](NC(=O)[C@H](CC(=O)O)NC(=O)Cc1ccccc1)C(=O)N[C@@H](Cc1ccccc1)C(=O)N1CCC[C@@H]1C(N)=O` [N-phenylacetyl-Asp-Leu-Phe-D-Pro-NH2, reference compound] (PhAc-DLF[dP]-NH2), at VLA-4 receptor, the “binding inhibition, in words (compared with standard 10-mer of SEQ ID NO:3 or other compounds)” value is reported as “no inhibition of VLA-4” and the “Relative Potency” value came out at 0. In addition, the “reduction of inflammation (swelling diameter at challenge site), initial study” value in the data set with BALB/c mice is listed as “no reduction of inflammation”.
